From the supplement of paper PMC10331698
± gives the standard deviation of the averaged measurements.

Columns and labels:
Experiment in all cases: level (log10 ratio to DMSO vehicle control); higher = higher biomarker level / cell amount than vehicle control
Details in all cases: in DMSO
[1] = compound: O=C(O)C(F)(F)C(F)(F)C(F)(F)C(F)(F)C(F)(F)C(F)(F)C(F)(F)C(F)F [9-H-Perfluorononanoic acid]
Experimental: (§1)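 BioMAP Diversity Plus panel of 12 human primary cell co-culture systems (3C, 4H, LPS, SAg, BT, BF4T, BE3C, CASM3C, HDF3CGF, KF3CT, MyoF, Mphg). Compounds were added 1 h before stimulation and left for 24 h (MyoF 48 h; BT 72 h for soluble read-outs or 6 d for IgG). Biomarkers were read by ELISA, cytotoxicity by SRB, PBMC viability and proliferation by Alamar Blue. Each well value was divided by the mean of 8 DMSO control wells on the same plate and log10 transformed; duplicate blinded samples were tested at 4 concentrations.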

[2] = compound: C=C(C)C(=O)OCCC(F)(F)C(F)(F)C(F)(F)C(F)(F)C(F)(C(F)(F)F)C(F)(F)F [(Perfluoro-5-methylhexyl)ethyl 2-methylprop-2-enoate]
Experimental: as §1

[3] = compound: O=C(O)C(F)(F)C(F)(F)C(F)F [4H-Perfluorobutanoic acid]
Experimental: as §1

Perfluoroheptanoic acid = compound: O=C(O)C(F)(F)C(F)(F)C(F)(F)C(F)(F)C(F)(F)C(F)(F)F [Perfluoroheptanoic acid]
Experimental: as §1

Heptafluorobutyramide = compound: NC(=O)C(F)(F)C(F)(F)C(F)(F)F [Heptafluorobutyramide]
Experimental: as §1

Pentafluoropropionamide = compound: NC(=O)C(F)(F)C(F)(F)F [Pentafluoropropionamide]
Experimental: as §1

Perfluoropentanoic acid = compound: O=C(O)C(F)(F)C(F)(F)C(F)(F)C(F)(F)F [Perfluoropentanoic acid]
Experimental: as §1

Test System	level (log10) ([1]; 6700 nM)	level (log10) ([1]; 20000 nM)	level (log10) ([1]; 60000 nM)	level (log10) ([2]; 6700 nM)	level (log10) ([2]; 20000 nM)	level (log10) ([3]; 6700 nM)	level (log10) ([3]; 20000 nM)	level (log10) ([3]; 60000 nM)	level (log10) (Perfluoroheptanoic acid; 6700 nM)	level (log10) (Perfluoroheptanoic acid; 20000 nM)	level (log10) (Perfluoroheptanoic acid; 60000 nM)	level (log10) (Heptafluorobutyramide; 6700 nM)	level (log10) (Heptafluorobutyramide; 20000 nM)	level (log10) (Heptafluorobutyramide; 60000 nM)	level (log10) (Pentafluoropropionamide; 6700 nM)	level (log10) (Pentafluoropropionamide; 20000 nM)	level (log10) (Pentafluoropropionamide; 60000 nM)	level (log10) (Perfluoropentanoic acid; 6700 nM)	level (log10) (Perfluoropentanoic acid; 20000 nM)	level (log10) (Perfluoropentanoic acid; 60000 nM)
KF3CT:IL-1alpha	0.006 ± 0.0071	-0.0195 ± 0.012	-0.039 ± 0.035	-0.014 ± 0.0028	-0.0225 ± 0.0035	0.001 ± 0.05	-0.0055 ± 0.005	0.0075 ± 0.06	-0.007 ± 0.018	0.016 ± 0.014	-0.0115 ± 0.0064	-0.0035 ± 0.0064	0.013 ± 0.0057	-0.0005 ± 0.032	-0.0165 ± 0.005	-0.034 ± 0.0085	-0.0105 ± 0.044	-0.004 ± 0.017	0.004 ± 0.0028	-0.0115 ± 0.021
KF3CT:MMP-9	-0.05 ± 0.013	0.004 ± 0.0014	0.0475 ± 0.011	-0.0045 ± 0.037	-0.027 ± 0.041	-0.024 ± 0.055	-0.0395 ± 0.012	-0.0775 ± 0.00071	-0.0065 ± 0.0078	0.0165 ± 0.026	0.059 ± 0.025	0.002	-0.0005 ± 0.00071	0.0035 ± 0.00071	-0.0375 ± 0.012	-0.0255 ± 0.00071	-0.0105 ± 0.012	-0.0225 ± 0.025	-0.0205 ± 0.018	0.012 ± 0.038
KF3CT:PAI-I	-0.0045 ± 0.0035	0.007 ± 0.0071	0.003 ± 0.0085	-0.035 ± 0.047	-0.05 ± 0.018	0.0015 ± 0.022	0.046 ± 0.02	-0.0075 ± 0.073	-0.043 ± 0.016	-0.0355 ± 0.012	-0.013 ± 0.068	-0.0145 ± 0.0035	-0.011 ± 0.0028	0.0105 ± 0.012	-0.006 ± 0.0057	0.002 ± 0.0014	0.0075 ± 0.0021	0.0005 ± 0.021	-0.003	0.004 ± 0.0057
KF3CT:SRB	-0.0175 ± 0.005	-0.019 ± 0.0014	-0.032 ± 0.0042	-0.006 ± 0.0014	0.003 ± 0.016	-0.005 ± 0.0071	-0.0065 ± 0.0064	-0.008 ± 0.0014	-0.0065 ± 0.005	-0.006 ± 0.0085	0.007 ± 0.016	-0.0055 ± 0.0035	0.0025 ± 0.0078	-0.001 ± 0.011	-0.006 ± 0.0014	-0.0025 ± 0.0035	-0.007 ± 0.023	-0.007 ± 0.0071	-0.004 ± 0.0014	0.0055 ± 0.011
KF3CT:TIMP-2	-0.0055 ± 0.03	-0.01 ± 0.014	0.016 ± 0.017	-0.016 ± 0.03	-0.041 ± 0.052	0.002 ± 0.031	-0.011 ± 0.016	0.004 ± 0.0099	0.006 ± 0.021	0.0085 ± 0.025	0.031 ± 0.017	-0.001 ± 0.011	0.0075 ± 0.0035	0.008 ± 0.0042	0.0005 ± 0.026	0.004 ± 0.027	0.0305 ± 0.013	-0.013 ± 0.037	-0.0065 ± 0.0035	0.017 ± 0.045
KF3CT:uPA	0.006 ± 0.024	0.003 ± 0.024	-0.0115 ± 0.00071	0.007 ± 0.0057	0.007 ± 0.0028	0.0125 ± 0.028	0.0275 ± 0.0064	0.007 ± 0.035	0.007 ± 0.016	0.0065 ± 0.0021	0.0075 ± 0.013	-0.0085 ± 0.022	-0.0215 ± 0.026	-0.006 ± 0.014	-0.005 ± 0.0014	0.008 ± 0.0085	0.002 ± 0.018	0.0015 ± 0.023	0 ± 0.0085	0.021 ± 0.0071
MyoF:CD106/VCAM-1	-0.015 ± 0.02	-0.0135 ± 0.005	-0.0125 ± 0.025	0.0095 ± 0.0092	-0.013 ± 0.0028	-0.0065 ± 0.011	-0.017 ± 0.0071	0.0135 ± 0.015	-0.013 ± 0.0071	-0.004 ± 0.016	-0.0125 ± 0.015	-0.0165 ± 0.0064	-0.017 ± 0.028	-0.0145 ± 0.018	-0.013 ± 0.017	0.006 ± 0.028	-0.0075 ± 0.0021	0.0025 ± 0.005	0.001	-0.001 ± 0.0057
MyoF:CXCL8/IL-8	0.021 ± 0.023	0.003 ± 0.013	-0.001 ± 0.023	-0.011 ± 0.011	-0.0255 ± 0.0064	-0.0125 ± 0.059	-0.0145 ± 0.0035	0.0465 ± 0.074	0.002 ± 0.0042	0.0205 ± 0.005	0.0175 ± 0.035	-0.0015 ± 0.023	-0.014 ± 0.011	0.002 ± 0.0099	-0.031 ± 0.013	-0.026 ± 0.016	0.013 ± 0.045	-0.008 ± 0.02	0.01 ± 0.0071	0.024 ± 0.014
MyoF:Collagen I	0.0035 ± 0.0021	0.0025 ± 0.0035	-0.0365 ± 0.0092	-0.0325 ± 0.037	-0.037 ± 0.02	-0.0215 ± 0.022	-0.0115 ± 0.018	-0.0115 ± 0.0092	-0.0225 ± 0.011	-0.006	0.0055 ± 0.043	-0.015 ± 0.013	-0.0105 ± 0.00071	-0.014 ± 0.0099	0.012 ± 0.0057	0.006 ± 0.0028	0.01 ± 0.0028	-0.0065 ± 0.0092	-0.008 ± 0.0085	0.0065 ± 0.015
MyoF:Collagen III	-0.002 ± 0.0085	-0.003 ± 0.0042	-0.026 ± 0.018	-0.0135 ± 0.052	-0.0455 ± 0.04	0.022 ± 0.0099	0.0155 ± 0.0064	0.034 ± 0.014	-0.013 ± 0.018	-0.011 ± 0.018	-0.0055 ± 0.0078	-0.0025 ± 0.0092	0.0025 ± 0.011	-0.004 ± 0.02	0.002 ± 0.031	-0.005 ± 0.0014	-0.007 ± 0.0057	-0.001 ± 0.0028	0.0055 ± 0.0021	-0.001 ± 0.0085
MyoF:Collagen IV	0.039 ± 0.037	0.0365 ± 0.018	0.082 ± 0.03	0.025 ± 0.02	0.058 ± 0.1	0.0025 ± 0.0035	0.0005 ± 0.0035	0.023 ± 0.027	-0.0175 ± 0.022	-0.014 ± 0.013	0.0305 ± 0.07	-0.0185 ± 0.019	-0.01 ± 0.0028	0.0275 ± 0.023	-0.0295 ± 0.03	-0.0275 ± 0.025	-0.007 ± 0.051	-0.007 ± 0.025	-0.012 ± 0.016	-0.0025 ± 0.023
MyoF:Decorin	0.0315 ± 0.0035	0.051 ± 0.0071	0.093 ± 0.016	-0.006 ± 0.037	0.008 ± 0.052	-0.005 ± 0.048	0.003 ± 0.064	0.0655 ± 0.088	-0.0015 ± 0.013	0.036 ± 0.0042	0.0505 ± 0.035	-0.029 ± 0.057	0.02 ± 0.081	0.0065 ± 0.049	0.01 ± 0.017	0.0135 ± 0.00071	0.0325 ± 0.028	-0.015 ± 0.0028	-0.0125 ± 0.0092	0.005 ± 0.048
MyoF:MMP-1	-0.015 ± 0.0099	-0.005	-0.0215 ± 0.023	-0.023 ± 0.0057	-0.0365 ± 0.074	-0.0355 ± 0.07	-0.07 ± 0.054	0.022 ± 0.044	-0.0175 ± 0.0064	-0.0245 ± 0.011	0.021 ± 0.061	-0.0185 ± 0.018	-0.0105 ± 0.049	0.027 ± 0.082	-0.0305 ± 0.063	-0.0255 ± 0.0064	0.016 ± 0.058	-0.009 ± 0.02	-0.0215 ± 0.011	0.009 ± 0.071
